{"source": "paper PMC8837544", "about": "“Pharmacological inhibition of MERTK induces in vivo retinal degeneration: a multimodal imaging ocular safety assessment” (Archives of Toxicology, 2022)", "key": {"MERTK": {"target": "MERTK (Homo sapiens, UniProt Q12866)", "sequence (Q12866 21-999)": "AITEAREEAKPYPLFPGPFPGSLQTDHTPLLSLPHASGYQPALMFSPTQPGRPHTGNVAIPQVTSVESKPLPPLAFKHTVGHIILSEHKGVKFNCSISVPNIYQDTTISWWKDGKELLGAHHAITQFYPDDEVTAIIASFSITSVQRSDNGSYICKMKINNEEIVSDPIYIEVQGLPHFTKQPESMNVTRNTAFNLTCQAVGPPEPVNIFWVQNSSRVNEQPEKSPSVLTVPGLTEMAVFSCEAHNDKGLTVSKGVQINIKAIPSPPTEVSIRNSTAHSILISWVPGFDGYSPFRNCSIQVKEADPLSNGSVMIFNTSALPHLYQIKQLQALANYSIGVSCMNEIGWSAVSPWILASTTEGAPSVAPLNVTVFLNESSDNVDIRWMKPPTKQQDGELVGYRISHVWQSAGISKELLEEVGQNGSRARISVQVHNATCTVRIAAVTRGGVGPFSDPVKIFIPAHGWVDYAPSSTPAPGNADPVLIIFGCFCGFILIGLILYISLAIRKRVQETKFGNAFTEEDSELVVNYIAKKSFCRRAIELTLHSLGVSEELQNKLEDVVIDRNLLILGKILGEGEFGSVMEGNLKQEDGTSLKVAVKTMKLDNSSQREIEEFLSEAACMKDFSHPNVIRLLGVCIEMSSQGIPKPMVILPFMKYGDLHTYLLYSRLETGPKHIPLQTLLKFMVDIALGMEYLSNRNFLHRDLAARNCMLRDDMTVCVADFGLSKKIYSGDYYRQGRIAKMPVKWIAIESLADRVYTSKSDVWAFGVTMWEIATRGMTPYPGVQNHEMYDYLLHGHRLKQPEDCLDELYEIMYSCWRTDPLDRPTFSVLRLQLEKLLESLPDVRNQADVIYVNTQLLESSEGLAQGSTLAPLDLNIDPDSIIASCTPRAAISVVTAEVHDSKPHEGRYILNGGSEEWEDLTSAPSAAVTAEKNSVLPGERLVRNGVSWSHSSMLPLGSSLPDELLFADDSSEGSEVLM", "details": "1 μM"}, "[1]": {"experiment": "CaCo2 permeability and efflux", "type": "in vitro ADME"}, "LogD7.4": {"experiment": "LogD7.4", "type": "physicochemical", "details": "pH 7.4"}, "[2]": {"experiment": "Human plasma protein binding", "type": "in vitro ADME"}, "retina [3]": {"system": "retina", "details": "mouse, in vivo", "procedure": "(§1) All in vivo experimental procedures were conducted in accordance with United Kingdom legislation (Animals (Scientific Procedures) Act, 1986) and were compliant with the ARRIVE guidelines. 6–7-week-old female (20–25 g) C57BL/6 J mice (Charles River Laboratories Ltd, UK) were acclimatized to the facility for 10 days and then randomized to groups based on bodyweight; vehicle control (n = 6, animals 1–6) and MERTK inhibitor treatment (n = 9, animals 7–15). Animals were treated via oral gavage with vehicle control (60% v/v 0.1 M HCl, 20% v/v PEG 400, 20% v/v purified water pH 3.5–4.5) or AZ14145845 (200 mg/kg). All animals were dosed twice daily with a dose volume of 10 mL/kg for 28 days, with the final dose being administered on the morning of Day 29. The dose interval between the first and second dose on each day was 8 h. […] Samples for histopathology were taken from 6 controls (animals 1–6), 8 treated animals (animals 7–11, 13–15) and for electron microscopy from 1 control (animal no. 1) and 3 treated animals (animals 8–10) and for MSI from 3 treated animals (animals 13–15)."}, "[4]": {"experiment": "Bodyweight and tolerability in 28 day mouse safety study", "details": "day 5 onwards, remainder of the study", "procedure": "as §1"}, "[5]": {"experiment": "Ocular exposure in the rat (melanin binding)", "type": "in vivo", "details": "for eye partition coefficient (Kp): iv infusion 2 μmol/kg/h, 4-h post infusion", "procedure": "Male pigmented Long Evans and non-pigmented Han Wistar rats were treated via intravenous infusion of AZ14145845 at a dose of 2 μmol/kg/h in a TEG:DMA:H2O (1:1:1) formulation, dose volume 4 mL/kg. At 4-h post the 15-min intravenous infusion, the animals were killed and the eyes extracted and homogenized to determine the concentration of AZ14145845 in the eye."}, "MAP4K5 (KHS1)": {"target": "MAP4K5 (KHS1) (Homo sapiens, UniProt Q9Y4K4)", "sequence (Q9Y4K4 whole entry)": "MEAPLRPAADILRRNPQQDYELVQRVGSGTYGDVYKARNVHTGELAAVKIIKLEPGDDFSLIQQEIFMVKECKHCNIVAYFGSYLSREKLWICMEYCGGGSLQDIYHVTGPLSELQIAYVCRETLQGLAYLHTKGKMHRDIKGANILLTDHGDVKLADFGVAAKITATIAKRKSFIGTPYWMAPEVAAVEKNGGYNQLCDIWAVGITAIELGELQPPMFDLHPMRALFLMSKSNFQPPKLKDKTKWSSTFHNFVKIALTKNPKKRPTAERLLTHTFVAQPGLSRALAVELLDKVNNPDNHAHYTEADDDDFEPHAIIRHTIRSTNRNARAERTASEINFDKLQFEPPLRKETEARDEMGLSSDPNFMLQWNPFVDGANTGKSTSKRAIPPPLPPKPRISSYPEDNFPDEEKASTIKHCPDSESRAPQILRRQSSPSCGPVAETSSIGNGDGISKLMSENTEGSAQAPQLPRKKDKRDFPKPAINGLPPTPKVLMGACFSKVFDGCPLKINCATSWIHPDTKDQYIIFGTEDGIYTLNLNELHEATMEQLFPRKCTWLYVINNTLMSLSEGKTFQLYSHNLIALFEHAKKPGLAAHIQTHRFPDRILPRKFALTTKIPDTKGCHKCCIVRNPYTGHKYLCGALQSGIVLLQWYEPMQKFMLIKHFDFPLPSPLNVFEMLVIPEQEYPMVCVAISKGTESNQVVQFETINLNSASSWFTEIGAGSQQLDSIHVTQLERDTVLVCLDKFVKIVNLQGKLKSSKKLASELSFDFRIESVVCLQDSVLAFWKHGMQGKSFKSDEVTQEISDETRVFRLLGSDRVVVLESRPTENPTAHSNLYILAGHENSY", "details": "1 μM"}, "Axl [6]": {"target": "T1, Axl (Homo sapiens, UniProt P30530)", "T1 sequence (P30530 26-894)": "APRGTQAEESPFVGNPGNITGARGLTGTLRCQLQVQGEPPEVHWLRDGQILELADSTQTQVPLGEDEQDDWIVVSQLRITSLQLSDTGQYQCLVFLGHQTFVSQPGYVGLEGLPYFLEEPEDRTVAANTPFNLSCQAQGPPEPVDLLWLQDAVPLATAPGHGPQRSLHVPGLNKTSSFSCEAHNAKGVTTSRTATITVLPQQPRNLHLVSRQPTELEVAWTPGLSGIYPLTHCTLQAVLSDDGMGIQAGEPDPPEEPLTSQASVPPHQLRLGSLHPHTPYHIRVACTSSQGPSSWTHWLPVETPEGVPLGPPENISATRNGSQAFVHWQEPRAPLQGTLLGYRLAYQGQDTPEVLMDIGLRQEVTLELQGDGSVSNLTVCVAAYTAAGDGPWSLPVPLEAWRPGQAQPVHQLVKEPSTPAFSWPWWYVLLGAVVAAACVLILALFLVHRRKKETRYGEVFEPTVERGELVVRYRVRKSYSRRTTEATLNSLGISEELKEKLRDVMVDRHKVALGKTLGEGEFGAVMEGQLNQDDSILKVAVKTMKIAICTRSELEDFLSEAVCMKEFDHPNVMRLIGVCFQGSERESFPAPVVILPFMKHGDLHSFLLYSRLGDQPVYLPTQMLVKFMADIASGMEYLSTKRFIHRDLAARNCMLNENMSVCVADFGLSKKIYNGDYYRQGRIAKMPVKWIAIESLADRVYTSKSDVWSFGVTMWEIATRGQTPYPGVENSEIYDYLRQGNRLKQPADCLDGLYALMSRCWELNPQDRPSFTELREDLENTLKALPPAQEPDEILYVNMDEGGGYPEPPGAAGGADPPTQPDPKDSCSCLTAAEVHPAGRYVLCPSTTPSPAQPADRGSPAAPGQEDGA", "details": "1 μM"}, "retina [7]": {"system": "retina", "experiment": "Retinal histopathology (H&E light microscopy) in 28 day mouse safety study", "type": "in vivo, C57BL/6 J mice"}, "[8]": {"system": "Mer kinase Ba/F3 xenograft", "details": "200 mg/kg, ref McCoull et al. [2021]; cited from earlier work"}, "[9]": {"details": "200 mg/kg BID, C57BL/6 J mice, 28 days", "procedure": "as §1\nA whole blood sample (32 µL) was collected via a tail vein prick into a K2-EDTA treated capillary tube, centrifuged at 1500g for 10 min at 4 °C, and plasma collected using a micropipette (non-EDTA Ref.no. 172292, Vitrex Medical A/S, Denmark). Samples were collected on Day 1 at 30 min, 2-h, 8-h (pre-second dose) and 24-h post the first dose. On days 7, 28, 29 samples were collected at 2-h post the first dose and at 8-h pre the second dose."}, "[10]": {"experiment": "MALDI mass spectrometry imaging of whole eye sections (quantitative MSI)", "type": "in vivo, C57BL/6 J mice", "procedure": "as §1"}, "HLM intrinsic clearance": {"experiment": "HLM intrinsic clearance", "type": "in vitro ADME, human"}, "hERG": {"target": "hERG (Homo sapiens, UniProt Q12809)", "sequence (Q12809 whole entry)": "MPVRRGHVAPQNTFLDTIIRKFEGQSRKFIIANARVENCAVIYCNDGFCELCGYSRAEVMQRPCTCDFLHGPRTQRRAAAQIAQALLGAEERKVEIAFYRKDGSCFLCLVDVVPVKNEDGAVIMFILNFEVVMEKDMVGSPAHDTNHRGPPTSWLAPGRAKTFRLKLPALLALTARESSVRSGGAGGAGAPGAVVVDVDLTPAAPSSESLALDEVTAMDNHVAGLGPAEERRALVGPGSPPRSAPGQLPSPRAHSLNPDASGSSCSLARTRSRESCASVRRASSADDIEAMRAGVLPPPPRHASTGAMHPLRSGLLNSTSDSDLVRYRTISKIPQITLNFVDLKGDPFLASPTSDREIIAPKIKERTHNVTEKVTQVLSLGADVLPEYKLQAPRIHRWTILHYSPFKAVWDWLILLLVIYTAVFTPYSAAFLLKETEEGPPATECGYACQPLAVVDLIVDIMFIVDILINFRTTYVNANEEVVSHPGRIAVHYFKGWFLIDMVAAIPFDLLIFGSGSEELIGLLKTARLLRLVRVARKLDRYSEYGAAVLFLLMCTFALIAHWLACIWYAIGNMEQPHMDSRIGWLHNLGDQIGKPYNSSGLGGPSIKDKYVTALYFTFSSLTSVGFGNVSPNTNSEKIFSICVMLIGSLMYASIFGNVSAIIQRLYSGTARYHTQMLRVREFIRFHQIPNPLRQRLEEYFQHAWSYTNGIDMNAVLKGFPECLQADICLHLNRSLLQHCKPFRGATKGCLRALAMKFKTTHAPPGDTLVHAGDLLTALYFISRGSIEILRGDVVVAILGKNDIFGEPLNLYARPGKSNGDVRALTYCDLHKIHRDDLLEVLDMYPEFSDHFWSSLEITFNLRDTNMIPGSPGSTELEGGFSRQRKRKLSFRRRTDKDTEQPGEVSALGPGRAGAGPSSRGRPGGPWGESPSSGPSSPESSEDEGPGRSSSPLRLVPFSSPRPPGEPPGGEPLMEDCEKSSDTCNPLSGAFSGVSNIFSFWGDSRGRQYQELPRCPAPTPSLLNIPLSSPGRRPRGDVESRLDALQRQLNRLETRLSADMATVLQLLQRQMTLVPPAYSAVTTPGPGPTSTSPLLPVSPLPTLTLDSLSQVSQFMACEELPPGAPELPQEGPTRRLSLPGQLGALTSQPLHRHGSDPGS", "details": "read-out: hERG"}, "[11]": {"system": "ARPE19, human retinal epithelial cells", "experiment": "Phagocytosis of photoreceptor outer segments (POS) in human retinal cells", "type": "cell-based", "details": "3 μM, 6-h incubation, FITC-labeled POS", "procedure": "ARPE19, human retinal epithelial cells, were cultured in Dulbecco’s modified Eagle’s medium (DMEM/F12, supplemented with 10% fetal bovine serum). All culture materials were purchased from Thermo Fisher Scientific. Cells were seeded at 10,000 cells per well in CellCarrier imaging plates (Perkin Elmer) and cultured for up to 6 weeks to allow for polarization of the cell layer. On the day of treatment cells were washed three times in PBS and then incubated in serum free conditions with FITC-labeled POS at a concentration of 10 POS/cell and either DMSO or 3 μM of AZ14145845 in DMSO. Following incubation for 6 h, cells were washed with PBS to remove non-internalized POS and fixed in 4% PFA. Following staining of nuclei with Hoechst, cells were imaged using a […] ImageExpress Confocal microscope. Each well was imaged at 20 × with 16 images taken per well. Analysis modules were written using the custom module editor of MetaXpress vers 6.5.4.532. Nuclei were segmented and enumerated using the embedded count nuclei module. Individual POS particles were segmented and counted on a per image basis using the same custom module. Data are expressed as fold change in total POS per cell over control. Experiments were carried out a minimum of 3 times."}, "[12]": {"experiment": "Mouse plasma protein binding", "type": "in vitro ADME"}, "Flt3": {"target": "Flt3 (Homo sapiens, UniProt P36888)", "sequence (P36888 27-993)": "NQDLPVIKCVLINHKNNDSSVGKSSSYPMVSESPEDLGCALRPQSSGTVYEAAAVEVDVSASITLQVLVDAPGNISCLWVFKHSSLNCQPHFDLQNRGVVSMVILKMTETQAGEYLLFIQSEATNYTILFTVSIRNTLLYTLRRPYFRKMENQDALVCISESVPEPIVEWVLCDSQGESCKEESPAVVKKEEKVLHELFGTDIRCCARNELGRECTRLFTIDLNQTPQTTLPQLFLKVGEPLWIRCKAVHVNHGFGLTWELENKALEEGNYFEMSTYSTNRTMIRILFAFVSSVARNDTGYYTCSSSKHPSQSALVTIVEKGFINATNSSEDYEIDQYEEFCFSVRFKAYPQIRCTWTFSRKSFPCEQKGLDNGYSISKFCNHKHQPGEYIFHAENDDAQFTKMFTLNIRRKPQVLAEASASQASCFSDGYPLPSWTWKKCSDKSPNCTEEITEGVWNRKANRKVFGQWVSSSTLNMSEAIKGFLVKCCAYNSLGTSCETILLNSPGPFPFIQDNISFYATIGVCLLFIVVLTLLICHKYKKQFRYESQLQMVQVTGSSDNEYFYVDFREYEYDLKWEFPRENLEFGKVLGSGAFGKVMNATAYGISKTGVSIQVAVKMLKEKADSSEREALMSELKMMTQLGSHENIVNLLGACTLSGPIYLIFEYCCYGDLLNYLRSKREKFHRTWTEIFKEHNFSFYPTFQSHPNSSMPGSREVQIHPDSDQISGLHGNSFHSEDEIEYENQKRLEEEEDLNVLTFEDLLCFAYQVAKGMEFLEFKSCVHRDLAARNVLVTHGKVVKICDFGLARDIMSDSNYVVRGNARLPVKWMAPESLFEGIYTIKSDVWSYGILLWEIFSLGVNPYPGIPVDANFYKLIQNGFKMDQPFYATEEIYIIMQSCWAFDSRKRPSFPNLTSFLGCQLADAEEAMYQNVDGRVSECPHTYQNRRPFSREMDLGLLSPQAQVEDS", "procedure": "(§2) Biochemical assays for Mer, Axl, Tyro3 and Flt3 were performed using a Rapidfire LCMS method as previously described (Nissink et al. [2021]). Cellular assays for pMer, pAxl, pTyro3, pFLT3 were performed in transiently transfected Cos-7 (Monkey: African green) cell lines as previously described. The macrophage efferocytosis assay was performed as previously described (Clark et al. [2019])."}, "Axl [13]": {"target": "T1, Axl", "procedure": "as §2"}, "Mer": {"target": "Mer (Homo sapiens, UniProt Q12866)", "sequence (Q12866 21-999)": "as the sequence (Q12866 21-999) above", "procedure": "as §2"}, "Mouse pharmacokinetics": {"experiment": "Mouse pharmacokinetics", "type": "in vivo"}, "macrophage efferocytosis": {"system": "macrophage efferocytosis", "experiment": "Macrophage efferocytosis assay", "type": "cell-based"}, "Solubility": {"experiment": "Solubility", "type": "physicochemical"}, "retina [14]": {"system": "retina", "details": "mouse, cited from earlier work"}, "[15]": {"details": "animals 13-15, 200 mg/kg BID 28 days"}}, "note": "“And” between values parts separate entries of the source, which are not always exact repeats. Equal values may be shown once."}
{"compound": "Cc1cc(-c2c(C)nn(C)c2C)cnc1-c1nnc(N(C)Cc2ccc3ncc(-c4ccc(CN(C)C)cc4)n3c2)o1", "note": "[AZ14145845]", "values": [{"measurement": "inhibition of MERTK in kinome profiling", "setting": "MERTK", "value": "> 90", "unit": "%"}, {"measurement": "CaCo2 efflux ratio", "setting": "[1]", "value": 10}, {"measurement": "LogD7.4", "setting": "LogD7.4", "value": 2.9}, {"measurement": "Human PPB (% free)", "setting": "[2]", "value": 14, "unit": "% free"}, {"measurement": "ultra-structural findings by TEM", "setting": "retina [3]", "value": "ultra-structural changes at the interface between the POS and the RPE"}, {"measurement": "weight gain above baseline", "setting": "[4]", "value": "3–6%"}, {"measurement": "difference in eye Kp, pigmented vs non-pigmented rats", "setting": "[5]; assumed consequence of melanin binding", "value": "~ ten-fold"}, {"measurement": "eye partition coefficient (Kp)", "setting": "[5]; non-pigmented Han Wistar rat", "value": 2.5}, {"measurement": "eye partition coefficient (Kp)", "setting": "[5]; pigmented Long Evans rat", "value": 19}, {"measurement": "inhibition of MAP4K5 (KHS1) in kinome profiling", "setting": "MAP4K5 (KHS1)", "value": "> 75", "unit": "%"}, {"measurement": "inhibition of AXL in kinome profiling", "setting": "Axl [6]", "value": "> 90", "unit": "%"}, {"measurement": "Total of any retinal degeneration/atrophy (of number examined)", "setting": "retina [7]; 200 mg/kg BID, 28 days, one eye per mouse", "value": "4 of 8"}, {"measurement": "length of the retina affected by focal lesion", "setting": "retina [7]; animal no. 10, lesion midway between optic nerve and peripheral limit", "value": "approximately 25%"}, {"measurement": "extent of retina affected", "setting": "retina [7]; animal no. 14, most severe microscopic changes", "value": "entire length of retina"}, {"measurement": "length of the retina affected by focal lesions", "setting": "retina [7]; animal numbers 8 and 9, lesions towards the periphery of the retina", "value": "approximately 20%"}, {"measurement": "Number of animals with no H&E findings", "setting": "retina [7]; n = 8 treated mice, 200 mg/kg BID, 28 days, one eye per mouse, 200 mg/kg", "value": "four of the eight and 4"}, {"measurement": "Moderate retinal degeneration/atrophy (number of animals)", "setting": "retina [7]; n = 8 treated mice, diffuse distribution, animal 14", "value": 1, "unit": "with diffuse distribution"}, {"measurement": "Minimal retinal degeneration/atrophy (number of animals)", "setting": "retina [7]; n = 8 treated mice, focal distribution, animals 8, 9, 10", "value": 3, "unit": "with focal distribution"}, {"measurement": "efficacy in xenograft tumor model", "setting": "[8]", "value": "showed efficacy"}, {"measurement": "accumulation in plasma", "setting": "[9]", "value": "no accumulation was observed"}, {"measurement": "average free cover over MERTK Cos-7 cell IC50 at Cmax", "setting": "[9]", "value": 90, "unit": "fold"}, {"measurement": "average free cover over MERTK Cos-7 cell IC50 at Cmin", "setting": "[9]", "value": 21, "unit": "fold"}, {"measurement": "A2E (RPE marker) in the posterior part of the eye by MSI", "setting": "[10]; animal no. 14 compared to animals no. 13 and 15", "value": "dramatic decrease"}, {"measurement": "Total concentration in the anterior region of the eye (QMSI)", "setting": "[10]; [15]", "value": "~ 11 µM"}, {"measurement": "Total concentration in the posterior region of the eye (QMSI)", "setting": "[10]; [15]", "value": "~ 9 µM"}, {"measurement": "Total concentration in the whole eye (QMSI)", "setting": "[10]; [15]", "value": "~ 3 µM"}, {"measurement": "ocular distribution by MSI", "setting": "[10]; whole eye sections, 20 µm spatial resolution", "value": "largely localized in the pigmented retinal tissues of the RPE and choroid layers"}, {"measurement": "HLM CLint", "setting": "HLM intrinsic clearance", "value": 195, "unit": "µL/min/mg protein"}, {"measurement": "IC50", "setting": "hERG", "value": 5.7, "unit": "µM"}, {"measurement": "drop in the number of internalized POS", "setting": "[11]", "value": "~60", "unit": "%"}, {"measurement": "Mouse PPB (% free)", "setting": "[12]", "value": 7.6, "unit": "% free"}, {"measurement": "Flt3 enzyme (pIC50)", "setting": "Flt3", "value": "< 4.5/ < 4.5"}, {"measurement": "Flt3 cell (pIC50)", "setting": "Flt3; Cos-7 cell", "value": "< 4.5/ < 4.5"}, {"measurement": "Axl enzyme (pIC50)", "setting": "Axl [13]", "value": 7.9}, {"measurement": "Axl cell (pIC50)", "setting": "Axl [13]; Cos-7 cell", "value": 7.0}, {"measurement": "Mer enzyme (pIC50)", "setting": "Mer", "value": 9.0}, {"measurement": "Mer cell (pIC50)", "setting": "Mer; Cos-7 cell", "value": "7.7 and 7.8"}, {"measurement": "bioavailability", "setting": "Mouse pharmacokinetics; mouse", "value": 15, "unit": "%"}, {"measurement": "clearance", "setting": "Mouse pharmacokinetics; mouse", "value": 44, "unit": "mL/min/kg"}, {"measurement": "volume of distribution at steady state", "setting": "Mouse pharmacokinetics; mouse", "value": 3.7, "unit": "L/kg"}, {"measurement": "dose dependence of Cmax and AUC", "setting": "Mouse pharmacokinetics; up to 200 mg/kg", "value": "Dose linear increase"}, {"measurement": "Efferocytosis (pIC50)", "setting": "macrophage efferocytosis", "value": 7.6}, {"measurement": "Solubility", "setting": "Solubility", "value": 938, "unit": "µM"}]}
{"compound": "CCCCNc1ncc2c(-c3ccc(F)cc3)nn(CC3CCC(N)CC3)c2n1", "note": "(stereo not shown) [UNC-569]", "values": [{"measurement": "electron microscopic evaluation of the retina", "setting": "retina [14]; in vivo", "value": "accumulation of membrane-bound multi-lamellated bodies in the RPE cells"}, {"measurement": "microscopic examination of H&E-stained tissue sections of the eye", "setting": "retina [14]; in vivo", "value": "No changes were detected"}, {"measurement": "duration of inhibition of MERTK phosphorylation in retinal tissue", "setting": "retina [14]; post oral administration, ref Sayama et al. [2018]", "value": "up to 17 h"}]}
